Test results as given in PubChem BioAssay (NCI).
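Five compound concentrations were applied to cells in 96-well plates for 48 hours; endpoints were derived by simple linear interpolation of the resulting dose-response curve. GI50 marks 50% less growth. TGI denotes the concentration required for complete inhibition of growth.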

Legend:
Experiment in all cases: growth of human tumour cells (NCI), 48 h
UACC-62 melanoma = test system: UACC-62 melanoma
UACC-257 melanoma = test system: UACC-257 melanoma
SNB-75 CNS = test system: SNB-75 CNS
SF-295 CNS = test system: SF-295 CNS
M14 melanoma = test system: M14 melanoma
EKVX NSCLC = test system: EKVX NSCLC
MALME-3M melanoma = test system: MALME-3M melanoma
RPMI-8226 leukemia = test system: RPMI-8226 leukemia
ACHN renal = test system: ACHN renal
HOP-62 NSCLC = test system: HOP-62 NSCLC

## C=CC(=O)N1CC[C@@H](Oc2nc(Nc3ccc(N4CCC(N5CCN(C)CC5)CC4)cc3)c(C(N)=O)nc2CC)C1
UACC-62 melanoma
  GI50: > 100 µM
  TGI: > 100 µM
UACC-257 melanoma
  GI50: > 100 µM
  TGI: > 100 µM
SNB-75 CNS
  GI50: > 100 µM
  TGI: > 100 µM
SF-295 CNS
  GI50: > 100 µM
  TGI: > 100 µM
M14 melanoma
  GI50: > 100 µM
  TGI: > 100 µM
EKVX NSCLC
  GI50: > 100 µM
  TGI: > 100 µM
MALME-3M melanoma
  GI50: > 100 µM
  TGI: > 100 µM
RPMI-8226 leukemia
  GI50: > 100 µM
  TGI: > 100 µM
ACHN renal
  GI50: > 100 µM
  TGI: > 100 µM

## O=C1c2ccccc2CC1C1(O)C(=O)Nc2c(Cl)cc(Cl)cc21 (stereo unspecified)
UACC-257 melanoma
  TGI: > 100 µM
SNB-75 CNS
  TGI: > 100 µM
SF-295 CNS
  TGI: > 100 µM
M14 melanoma
  TGI: > 100 µM
EKVX NSCLC
  TGI: > 100 µM
MALME-3M melanoma
  TGI: > 100 µM
HOP-62 NSCLC
  TGI: > 100 µM
RPMI-8226 leukemia
  TGI: > 100 µM
ACHN renal
  TGI: > 100 µM

## COc1c(C)cnc(Cn2cnc3c(Cl)nc(N)nc32)c1C
UACC-62 melanoma
  GI50: 0.301 µM
  TGI: 6.95 µM
UACC-257 melanoma
  GI50: 0.297 µM
  TGI: 9.57 µM
SNB-75 CNS
  GI50: 3.13 µM
  TGI: > 100 µM
SF-295 CNS
  GI50: 0.0948 µM
M14 melanoma
  GI50: 0.478 µM
  TGI: > 100 µM
MALME-3M melanoma
  GI50: 0.38 µM
  TGI: 58.3 µM
HOP-62 NSCLC
  GI50: 0.405 µM
  TGI: > 100 µM
RPMI-8226 leukemia
  GI50: 0.333 µM
  TGI: > 100 µM
ACHN renal
  GI50: 0.289 µM
  TGI: > 100 µM

## COc1cc2c(c(OC)c1OC)-c1c(c3ccc([N+](=O)[O-])cc3c(=O)n1CCCN=[N+]=[N-])C2=O
UACC-62 melanoma
  GI50: 32.5 µM
  TGI: > 100 µM
UACC-257 melanoma
  GI50: 0.0793 µM
  TGI: 11.9 µM
SF-295 CNS
  GI50: 18.5 µM
  TGI: > 100 µM
M14 melanoma
  GI50: 34.4 µM
  TGI: > 100 µM
EKVX NSCLC
  GI50: > 100 µM
  TGI: > 100 µM
MALME-3M melanoma
  GI50: 23.2 µM
  TGI: 96.9 µM
HOP-62 NSCLC
  GI50: 15.4 µM
  TGI: 38.1 µM
RPMI-8226 leukemia
  GI50: > 100 µM
  TGI: > 100 µM
ACHN renal
  GI50: 14.1 µM
  TGI: 39.6 µM

## COc1ccc(C(=O)CC(Cl)=C(Cl)Cl)cc1
UACC-62 melanoma
  GI50: 21.7 µM
  TGI: 49.9 µM
UACC-257 melanoma
  GI50: 34.4 µM
  TGI: > 100 µM
SF-295 CNS
  GI50: 59.9 µM
  TGI: > 100 µM
M14 melanoma
  GI50: 27.5 µM
  TGI: 66.1 µM
EKVX NSCLC
  GI50: 28.5 µM
  TGI: > 100 µM
MALME-3M melanoma
  GI50: 20.4 µM
  TGI: 43 µM
HOP-62 NSCLC
  GI50: 61.4 µM
  TGI: > 100 µM
RPMI-8226 leukemia
  GI50: 23.5 µM
  TGI: 68.5 µM
ACHN renal
  GI50: 20.1 µM
  TGI: 41.4 µM

## Oc1ccc(-c2nc(-c3ccc4oc5ccc(-c6[nH]c(-c7ccc(O)cc7)nc6-c6ccccc6)cc5c4c3)c(-c3ccccc3)[nH]2)cc1
UACC-62 melanoma
  GI50: 14.7 µM
  TGI: 46.8 µM
UACC-257 melanoma
  GI50: 10.3 µM
  TGI: 33.6 µM
SNB-75 CNS
  GI50: 8.69 µM
  TGI: 67.6 µM
SF-295 CNS
  GI50: 12.2 µM
  TGI: 45.4 µM
M14 melanoma
  GI50: 3.9 µM
  TGI: > 100 µM
MALME-3M melanoma
  GI50: 9.07 µM
  TGI: 68 µM
HOP-62 NSCLC
  GI50: 7.62 µM
  TGI: 42.3 µM
RPMI-8226 leukemia
  GI50: 3.17 µM
  TGI: > 100 µM
ACHN renal
  GI50: 5.2 µM
  TGI: 20.3 µM

## Cc1nn(C(=O)CC(=O)Nc2ccccc2Cl)c(C)c1N=Nc1ccccc1Cl
UACC-62 melanoma
  TGI: > 100 µM
UACC-257 melanoma
  TGI: > 100 µM
SNB-75 CNS
  TGI: > 100 µM
SF-295 CNS
  TGI: > 100 µM
M14 melanoma
  TGI: > 100 µM
EKVX NSCLC
  TGI: > 100 µM
MALME-3M melanoma
  TGI: > 100 µM
HOP-62 NSCLC
  TGI: > 100 µM
ACHN renal
  TGI: > 100 µM

## O=S(O)CCCSSCCCCSSCCCS(=O)O
UACC-62 melanoma
  TGI: > 100 µM
UACC-257 melanoma
  TGI: > 100 µM
SNB-75 CNS
  TGI: > 100 µM
SF-295 CNS
  TGI: > 100 µM
M14 melanoma
  TGI: > 100 µM
EKVX NSCLC
  TGI: > 100 µM
MALME-3M melanoma
  TGI: > 100 µM
HOP-62 NSCLC
  TGI: > 100 µM
ACHN renal
  TGI: > 100 µM
